From patent US4826856A, “Calcium antagonistic dihydropyridine derivative” (Yason s.r.l., priority 1985, dated 1989)
Like-named read-outs stand apart in the source and are kept apart here.

Tests used:
volunteers = assay: Clinical tolerance of oral treatment in volunteers; type: in vivo, human
Procedure: The study was performed in 4 male subjects aged 26-43 years.
Each volunteer received one capsule of 20 mg of YS 201 with a glass of water.
The same four volunteers, after the first administration were treated with increasing doses of YS 201: 30-40-50 mg.

Sprague-Dawley rats [1] = assay: Ventricular arrhythmias during coronary artery ligation period; type: in vivo, rat; parameters: EBs, mean value of indices + SEM / VT, mean value of indices + SEM / VF, mean value of indices + SEM: scale not given here
Procedure: (§1) Ventricular arrhythmias after coronary artery ligation in the acute phase or during the period of re-circulation
(§2) Sprague-Dawley rats were subjected to ligation of the left coronary artery according to the method of Clark et al. in J. Pharmacol. Methods 3, 357-368, 1980. The drugs were administered by gastric tube 30 minutes before the ligation. By means of a continuous electrocardiographic recording, the ventricular arrhythmias such as ectopic beats (EB), ventricular tachycardia (VT), ventricular fibrillation (VF) for 30 minutes after ligation, were recorded.

[2] = Pharmacokinetics and bioavailability in dogs; type: in vivo; conditions: dog; for half-life: hydrochloride
Procedure: YS 201 hydrochloride was intravenously and orally administered to dogs at 1 and 10 mg/kg respectively.

post-oligoemic rats = assay: Transient cerebral oligoemia in the rat, cerebral water, K+ and Ca++ content; type: in vivo
Procedure: Transient cerebral oligoemia in the rat
The method described by Borzeix in Circulation et Metabolisme du Cerveau 1, 63-79, John Libbey Eurotext Publ. […] The animals were treated by the oral route with the tested drugs twice a day, starting one hour after the ligation and for 3 days, in scalar doses.
The last dose, at the 71th hour after the occlusion, preceeded by one hour the sacrifice of the animal, whose brain was subjected to the determination of the H2 O, K^+ and Ca^++ content.

[3] = Acute toxicity in the mouse; conditions: in vivo
Text: (§3) The acute toxicity of YS 201 given by intraveous route, similar in the males and in the females in the rat as well as in the mouse, is as follows:
(§4) The acute toxicity of YS 201 given by oral route, similar in the males and in the females in the rat as well as in the mouse, is as follows: […]

[4] = Acute toxicity in the rat; conditions: in vivo
Text: as §3, §4

Sprague-Dawley rats [5] = assay: Ventricular arrhythmias after re-circulation; type: in vivo, rat
Procedure: as §1, §2

[6] = Bioavailability after oral administration in normal volunteers; type: in vivo, human; parameters: AUC: concentration or dose not given beside the values; conditions: for Tmax / Cmax / half-life / AUC: human, plasma, po; for Tmax / Cmax: oral 20 mg
Procedure: The study was performed in 4 male subjects aged 26-43 years. Pharmacokinetic studies were performed both after acute and repeated administrations. Acute administration […] Further venous blood samples were withdrawn 15-30 minutes and 1.0-1.5-2.0-4.0-6.0-8.0 hours after treatment. Multiple-doses administration […] Blood samples were withdrawn 2-4-8-12 hours after the last treatment.

CCOC(=O)C1=C(C)NC(C)=C(C(=O)OCCN2CCCCC2)C1c1cccc([N+](=O)[O-])c1 (stereo not drawn) [YS 201, ethyl-(β-piperidinoethyl)-2,6-dimethyl-4-(3-nitrophenyl)-1,4-dihydropyridine-3,5-dicarboxylate]
normal respiratory function and other vital parameters (volunteers; oral): not affected
pathological modification of the arterial pressure (volunteers; oral): not observed
tolerance of oral treatment (volunteers; oral): well tolerated
sinus bradycardia (volunteers; oral, two subjects (n. 3, 4)): moderate but definite sinus bradycardia
atrio-ventricular conduction time (PR interval) (volunteers; subject n. 1, delayed from 0.14 sec.): 0.16 s
atrio-ventricular conduction time (PR interval) (volunteers; subject n. 2, delayed from 0.16 sec.): 0.18 s
atrio-ventricular conduction time (PR interval), change (volunteers; two subjects (n. 1, 2)): slightly prolonged
Death rate % (Sprague-Dawley rats [1]; 0.75 mg/kg p.o.): 20%
EBs, mean value of indices + SEM (Sprague-Dawley rats [1]; 0.75 mg/kg p.o.): 42.1 ± 9.70
VF % (Sprague-Dawley rats [1]; 0.75 mg/kg p.o.): 60%
VF, mean value of indices + SEM (Sprague-Dawley rats [1]; 0.75 mg/kg p.o.): 3.8 ± 1.77
VT, mean value of indices + SEM (Sprague-Dawley rats [1]; 0.75 mg/kg p.o.): 1.3 ± 0.68
Death rate % (Sprague-Dawley rats [1]; 1.5 mg/kg p.o.): 0%
EBs, mean value of indices + SEM (Sprague-Dawley rats [1]; 1.5 mg/kg p.o.): 45.7 ± 6.18
VF % (Sprague-Dawley rats [1]; 1.5 mg/kg p.o.): 20%
VF, mean value of indices + SEM (Sprague-Dawley rats [1]; 1.5 mg/kg p.o.): 0.5 ± 0.49
VT, mean value of indices + SEM (Sprague-Dawley rats [1]; 1.5 mg/kg p.o.): 1.9 ± 0.32
Death rate % (Sprague-Dawley rats [1]; 3.0 mg/kg p.o.): 80%
EBs, mean value of indices + SEM (Sprague-Dawley rats [1]; 3.0 mg/kg p.o.): 36.0 ± 9.11
VF % (Sprague-Dawley rats [1]; 3.0 mg/kg p.o.): 100%
VF, mean value of indices + SEM (Sprague-Dawley rats [1]; 3.0 mg/kg p.o.): 4.8 ± 1.41
VT, mean value of indices + SEM (Sprague-Dawley rats [1]; 3.0 mg/kg p.o.): 1.6 ± 0.77
reduction of the index attributed to EBs and VT (Sprague-Dawley rats [1]; whatever the dosage): ~2 fold
decline in concentration ([2]; 1 mg/kg intravenous): typically biexponential
bioavailability ([2]; in vivo, 10 mg/kg, oral, read-out: average apparent bioavailable fraction): 19.4%
half-life ([2]; in vivo, 1 mg/kg intravenous, read-out: mean half-life of elimination): 1.47 h
half-life ([2]; in vivo, 10 mg/kg oral, read-out: mean apparent half-life of elimination): 2.47 h
AUC ([2]; in vivo, oral, 10 mg/kg, read-out: average AUC (converted)): 1080 ng·h/mL
Cmax ([2]; in vivo, oral, 10 mg/kg, read-out: maximum concentration (Cmax)): 284 ng/mL
Cerebral content of H2O (post-oligoemic rats; 0.25 mg/kg p.o.): 79.2 ± 0.57%
Cerebral content of Ca++ (post-oligoemic rats; 0.5 mg/kg p.o.): 11.7 ± 3.00 mmol · kg^-1 dry weig
Cerebral content of H2O (post-oligoemic rats; 0.5 mg/kg p.o.): 78.3 ± 0.39%
Cerebral content of Ca++ (post-oligoemic rats; 1 mg/kg p.o.): 11.7 ± 5.53 mmol · kg^-1 dry weig
Cerebral content of H2O (post-oligoemic rats; 1 mg/kg p.o.): 77.8 ± 0.47%
Cerebral content of Ca++ (post-oligoemic rats; 3 mg/kg p.o.): 12.6 ± 3.89 mmol · kg^-1 dry weig
Cerebral content of H2O (post-oligoemic rats; 3 mg/kg p.o.): 78.8 ± 0.44%
LD50 ([3]; iv): 12.3 mg/kg
LD50 ([3]; po): 283 mg/kg
LD50 ([4]; iv): 12.5 mg/kg
LD50 ([4]; po): 402 mg/kg
Death rate % (Sprague-Dawley rats [5]; 7.5 mg/kg p.o.): 10%
EBs, mean value of indices + SEM (Sprague-Dawley rats [5]; 7.5 mg/kg p.o.): 42.8 ± 10.08
VF % (Sprague-Dawley rats [5]; 7.5 mg/kg p.o.): 60%
VF, mean value of indices + SEM (Sprague-Dawley rats [5]; 7.5 mg/kg p.o.): 1.3 ± 0.52
VT, mean value of indices + SEM (Sprague-Dawley rats [5]; 7.5 mg/kg p.o.): 2.2 ± 1.70
Death rate % (Sprague-Dawley rats [5]; 15 mg/kg p.o.): 0%
EBs, mean value of indices + SEM (Sprague-Dawley rats [5]; 15 mg/kg p.o.): 27.20 ± 5.87
VF % (Sprague-Dawley rats [5]; 15 mg/kg p.o.): 50%
VF, mean value of indices + SEM (Sprague-Dawley rats [5]; 15 mg/kg p.o.): 0.6 ± 0.33
VT, mean value of indices + SEM (Sprague-Dawley rats [5]; 15 mg/kg p.o.): 1.2 ± 0.39
decline of plasma profile (compartment analysis) ([6]; acute and repeated administration): declines in one phase
unchanged drug in plasma ([6]; after six hours, acute): still present in the plasma
Tmax ([6]; 20 mg, acute study, read-out: average T max (converted)): 1.5 h
Cmax ([6]; 20 mg, acute study, ±2.65 S.E., read-out: mean peak plasma level): 57.2 ng/mL
half-life ([6]; 20 mg, after acute administration, mean of 4 volunteers, read-out: T1/2 el. (converted)): 1.88 h
half-life ([6]; 20 mg, after acute administration, volunteer 1, read-out: T1/2 el. (converted)): 1.99 h
half-life ([6]; 20 mg, after acute administration, volunteer 2, read-out: T1/2 el. (converted)): 1.05 h
half-life ([6]; 20 mg, after acute administration, volunteer 3, read-out: T1/2 el. (converted)): 1.8 h
half-life ([6]; 20 mg, after acute administration, volunteer 4, read-out: T1/2 el. (converted)): 2.66 h
half-life ([6]; 20 mg, after acute administration, ±0.65 S.D., read-out: mean T1/2 el. / terminal half life (converted)): 1.8 h
Cmax ([6]; 20 mg, mean of 4 volunteers, read-out: C max): 64.8 ng/mL
Tmax ([6]; 20 mg, mean of 4 volunteers, read-out: T max): 1.5 h
Cmax ([6]; 20 mg, volunteer 1, read-out: C max): 56 ng/mL
Tmax ([6]; 20 mg, volunteer 1, read-out: T max): 1.5 h
Cmax ([6]; 20 mg, volunteer 2, read-out: C max): 55 ng/mL
Tmax ([6]; 20 mg, volunteer 2, read-out: T max): 1.5 h
Cmax ([6]; 20 mg, volunteer 3, read-out: C max): 65 ng/mL
Tmax ([6]; 20 mg, volunteer 3, read-out: T max): 2 h
Cmax ([6]; 20 mg, volunteer 4, read-out: C max): 83 ng/mL
Tmax ([6]; 20 mg, volunteer 4, read-out: T max): 1 h
half-life ([6]; after multiple-doses administration, mean of 4 volunteers, read-out: T1/2 el. (converted)): 4.29 h
half-life ([6]; after multiple-doses administration, volunteer 1, read-out: T1/2 el. (converted)): 4.11 h
half-life ([6]; after multiple-doses administration, volunteer 2, read-out: T1/2 el. (converted)): 4.44 h
half-life ([6]; after multiple-doses administration, volunteer 3, read-out: T1/2 el. (converted)): 4.12 h
half-life ([6]; after multiple-doses administration, volunteer 4, read-out: T1/2 el. (converted)): 4.49 h
half-life ([6]; after repeated administration, read-out: mean terminal half life (converted)): 4.29 h
AUC ([6]; mean of 4 volunteers): 252 ng·h/mL
AUC ([6]; volunteer 1): 219 ng·h/mL
AUC ([6]; volunteer 2): 181 ng·h/mL
AUC ([6]; volunteer 3): 269 ng·h/mL
AUC ([6]; volunteer 4): 388 ng·h/mL
plasma level relative to peak ([6]; multiple dose, four hours after administration): reduced to the half
plasma level of unchanged drug vs acute treatment at same time ([6]; multiple dose, two hours after last treatment): three times upper
unchanged drug in plasma ([6]; twelve hours after treatment, multiple dose): still present in the plasma
